From patent publication US12636373B2, “Prodrugs with a tridentate self-immolative linker” (The General Hospital Corporation, priority 2018, dated 2026)
Where a SMILES comes first, the peptide text is derived from it. [ ]: non-standard residue; d: D form. The star is where a group is joined. Dolaproine = CO[C@@H]([C@@H]1CCCN1)[C@@H](C)C(=O)O; Dil = CC[C@H](C)[C@H](NC)[C@@H](CC(=O)O)OC; X2 = C[C@@H](N*)[C@@H](O)c1ccccc1; NMeV = CN[C@H](C(=O)O)C(C)C

How the values were obtained:
[1] = cited from earlier work
[2] = tested on: HT1080-EB3-mApple cells; experiment: EB3 microtubule comet imaging in live cells; assay type: cell-based, human; conditions: individual treatment, 24 h; 1 μM MMAE or C16proMMAE, 35 μM Pd-NP
Description: Microtubule imaging. EB3 tracking was performed using an FV1000 confocal laser scanning microscope on a 37° C. heated stage, with XLUMPLFLN 20× (NA 1.0) or LUMFLN 60× (NA 1.1) water-immersion objectives, 1-10× digital zoom, 559-nm diode laser, and BA575-620 emission filter (all Olympus America). […] EB3 tracks were automatically identified and analyzed from time-lapse datasets using u-track software,^35 with tuning of maximum gap number and minimum frame number across datasets to account for differences in image quality; ambiguous and spurious tracks and artifacts were excluded according to requirements for directional continuity (directional persistence as net displacement/path length>0.8) and movement (value>3 pixels). Speed was determined between frames in each track and averaged for each track by computing the mean of the middle 80% of between-frame values. Track overlay figures were produced using a custom python script. Averaged track speeds excluded outliers falling more than 1.5× the interquartile range for each biological replicate.

[3] = Nano-encapsulation (loading) efficiency, PLGA-PEG nanoprecipitation; assay type: physicochemical; conditions: PLGA-PEG polymeric micellar formulation
Description: Initial experiments determined up to 1 mg of C16 prodrug could be used with the same polymer composition with no detectable loss in loading efficiency. For fluorescence-based imaging and flow-cytometric detection of NP uptake, PLGA-BODIPY630 was used instead of PLGA (described previously).^5 NP drug and Pd compound loadings were determined by absorbance (Nanodrop spectrophotometer), interpolation from a standard curve (R^2>0.99) after 1:10 dilution in DMF. Size and zeta potential measurements were performed using dynamic light scattering (Malvern Zetasizer). Prodrug loading efficiency is defined as the fraction of initial drug used in the nano-precipitation reaction that was successfully encapsulated and recovered in final NP product.

**Q.** Which “toxicity at equivalent doses” value [1] does the source give for `CC[C@H](C)[C@@H]([C@@H](CC(=O)N1CCC[C@H]1[C@H](OC)[C@@H](C)C(=O)N[C@H](C)[C@@H](O)c1ccccc1)OC)N(C)C(=O)[C@@H](NC(=O)[C@@H](NC)C(C)C)C(C)C` [MMAE, monomethyl auristatin E] (H-[NMeV]V[Dil][Dolaproine]-X2) here?
**A.** severely toxic and above the maximum tolerated dose

**Q.** And the “microtubule comets (prevalence and growth speed)” value [2]?
**A.** complete elimination of visible comets

**Q.** And the nano-encapsulation efficiency [3]?
**A.** undetectable
